Consider 25 compounds from ChEMBL document CHEMBL1201862, “PubChem BioAssay data set” (2004).

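96-well plates; 48 h exposure; 5 concentrations. Endpoints by linear interpolation between flanking doses. Not reached: highest tested concentration assigned. GI50 marks 50% less growth.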 Activity calls are given as the source filed them. No stated cut-off is given here; in the data, active = GI50 up to about 1.1 µM and inactive = higher.

Some test systems named below: DLD-1; DMS-114; DMS-273; HOP-18; KM-20L2; M19-MEL; RXF 631; SNB-78; XF498.
Holding throughout (test): NCI anticancer screen, dose series, 48 h

`O=C1CCC2(c3ccc(Cl)cc3)Nc3cc(Cl)ccc3N12` (configuration not stated): the GI50 with DLD-1 was 5.75 µM (inactive); with DMS-114, 7.4 µM (inactive); in the test on DMS-273, 10.4 µM (inactive); in the test on HOP-18, 1.25 µM (inactive); with KM-20L2, 15.2 µM (inactive); in the test on M19-MEL, 12.8 µM (inactive). The GI50 in the test with RXF 631 is 14.7 µM (inactive); with SNB-78, 15.3 µM (inactive); in the test with XF498, 2.31 µM (inactive).
As for `CC1(C(=O)NCCN(CCNC(=O)C2(C)CC3(C)CC(C)(C2)C(=O)NC3=O)CCNC(=O)C2(C)CC3(C)CC(C)(C2)C(=O)NC3=O)CC2(C)CC(C)(C1)C(=O)NC2=O` (configuration not stated), the GI50 is > 100 µM (inactive) in the test on DMS-114; > 100 µM (inactive) with DMS-273; 94.4 µM (inactive) in the test on HOP-18; > 100 µM (inactive) with KM-20L2; > 100 µM (inactive) in the test on M19-MEL; > 100 µM (inactive) in the test on SNB-78. The GI50 with XF498 is > 100 µM (inactive).
For the compound `CNS(=O)(=O)NNS(=O)(=O)c1ccccc1`, the GI50 in the test with DLD-1, in the test on DMS-114, with DMS-273, in the test with HOP-18, in the test on KM-20L2 and with M19-MEL was > 100 µM (inactive) each time. The GI50 in the test with XF498 is > 100 µM (inactive).
With `C[Si](C)(C)OC1CC(=O)OC1n1cc(F)c(=O)[nH]c1=O` (configuration not stated), the GI50 with DLD-1 was 7.62 µM (inactive); with DMS-114, 27.2 µM (inactive); in the test on DMS-273, 12.9 µM (inactive); in the test on HOP-18, 23.2 µM (inactive); in the test with KM-20L2, 16.2 µM (inactive); in the test on M19-MEL it was 12.1 µM (inactive). For the same compound, the figures for the GI50 in the test with RXF 631 and in the test with XF498 were 14.6 µM (inactive) and 90.2 µM (inactive), respectively.
With `C=C1C(C)C2C(Cc3ccccc3)NC(=O)C23OC(=O)/C=C\CC(=O)CCC(C)C/C=C/C3C1O` (configuration not stated), the GI50 was 1.18 µM (inactive) in the test with DLD-1; 2.42 µM (inactive) in the test on DMS-114; 2.34 µM (inactive) in the test with DMS-273; 0.326 µM (active) with HOP-18; 3.66 µM (inactive) in the test on KM-20L2; 4.3 µM (inactive) in the test on M19-MEL. Moreover, the figures for the GI50 in the test with SNB-78 and with XF498 were 0.36 µM (active) and 0.287 µM (active), respectively.
Consider `N#CNc1nc(N)c(-c2ccc(Cl)cc2)c(C(=O)Nc2nccs2)n1`, for which the GI50 in the test on DLD-1, in the test on DMS-114, in the test with DMS-273, in the test on HOP-18, with KM-20L2 and in the test with M19-MEL was > 100 µM (inactive) in each case. Also, the GI50 with SNB-78 and with XF498 was > 100 µM (inactive) each time.
With `COC(=O)c1ccc(Cl)cc1NC(=O)C1CCCCC1`, the GI50 in the test on DMS-114, in the test on DMS-273, in the test with KM-20L2, in the test with M19-MEL and in the test with SNB-78 was > 100 µM (inactive) each time.
As for `COC1OC(COS(=O)(=O)c2ccc(C)cc2)C(O)C(OS(=O)(=O)c2ccc(C)cc2)C1OS(=O)(=O)c1ccc(C)cc1` (configuration not stated), the GI50 in the test on DLD-1, in the test with DMS-114, with DMS-273, with HOP-18, in the test with KM-20L2 and in the test with M19-MEL was > 100 µM (inactive) throughout. The GI50 in the test on RXF 631 and in the test with SNB-78 was > 100 µM (inactive) in each case.
Regarding `COc1ccc(C2=CN3CCC[C@H]3C=C2c2cc(O)c(OC)c(OC)c2)cc1OC`, the GI50 is 0.00316 µM (active) with DLD-1; 0.00385 µM (active) in the test on DMS-114; 0.00354 µM (active) with DMS-273; 0.00427 µM (active) with HOP-18; 0.00887 µM (active) in the test with KM-20L2; 0.00274 µM (active) with M19-MEL. Also, the GI50 in the test on SNB-78 was 0.00385 µM (active).
Turning to `C/C=C1\CN2CCc3c([nH]c4ccccc34)C2C=C1CCO` (configuration not stated), the GI50 in the test with DLD-1, in the test on DMS-114, with DMS-273, with KM-20L2, with M19-MEL and with RXF 631 was > 340 µM (inactive) throughout. In addition, the GI50 in the test on XF498 was 208 µM (inactive).
`CC(=O)n1c2ccccc2c2nc3nc(Oc4ccc(C)cc4)c4ccccc4c3cc21`: the GI50 is > 100 µM (inactive) with DLD-1; > 100 µM (inactive) in the test on DMS-114; > 100 µM (inactive) with DMS-273; > 100 µM (inactive) in the test with KM-20L2; > 100 µM (inactive) in the test on M19-MEL; 42.5 µM (inactive) in the test on SNB-78.
`Cc1ccc(NC(=O)COC(=O)c2cccc3c(=O)c4ccccc4[nH]c23)cc1`: the GI50 with DLD-1 is 14.6 µM (inactive); in the test on DMS-114 it was 34.2 µM (inactive); with DMS-273, 23.6 µM (inactive); in the test on HOP-18 it was > 100 µM (inactive); with KM-20L2, 53.2 µM (inactive); with M19-MEL, 46.7 µM (inactive). The GI50 with RXF 631 was 24.4 µM (inactive); with SNB-78 it was 27.6 µM (inactive); in the test on XF498 it was 41 µM (inactive).
For the compound `C1C[N+]23CCC[N+]2(C1)CCC3` (configuration not stated), the GI50 in the test with DLD-1, in the test with DMS-114, in the test with DMS-273, with HOP-18, in the test on KM-20L2 and in the test on M19-MEL was > 100 µM (inactive) each time. Moreover, the GI50 with RXF 631 and in the test with SNB-78 was > 100 µM (inactive) in each case.
On to `COc1cc2c(cc1OC)C1Cc3cc(OC)c(OC)cc3C(C2)N1C`, for which the GI50 in the test on DLD-1, in the test on KM-20L2, with SNB-78 and in the test on XF498 was > 100 µM (inactive) throughout.
On to `NS(=O)(=O)c1ccc(NC(=O)c2cccc3c(Nc4ccc(S(N)(=O)=O)cc4)c4ccccc4nc23)cc1`, for which the GI50 is 24.7 µM (inactive) with DLD-1; 39.3 µM (inactive) in the test with DMS-114; 1.85 µM (inactive) in the test with DMS-273; > 100 µM (inactive) in the test on HOP-18; 67.1 µM (inactive) in the test on KM-20L2; 21.4 µM (inactive) in the test on M19-MEL. The GI50 with RXF 631 is 3.48 µM (inactive); with SNB-78, 29.8 µM (inactive); in the test with XF498, 27.2 µM (inactive).
Consider `Cc1nn(C(=O)CC(=O)Nc2ccc(Cl)cc2)c(C)c1/N=N/c1ccccc1C(=O)O`, for which the GI50 in the test with DLD-1, in the test with DMS-114, in the test on DMS-273, with KM-20L2, in the test on M19-MEL and in the test on SNB-78 was > 100 µM (inactive) in each case.
On to `O=C(/C=C/c1ccccc1)/C=C/c1ccccc1`, for which the GI50 in the test on DLD-1 is 15.1 µM (inactive); in the test on DMS-114 it was 21.6 µM (inactive); with DMS-273, 38.7 µM (inactive); in the test on HOP-18, 28.6 µM (inactive); with KM-20L2, 22.1 µM (inactive); in the test with M19-MEL, 20.6 µM (inactive). Moreover, the GI50 is 32.8 µM (inactive) in the test on RXF 631 and 92.9 µM (inactive) in the test with SNB-78.
Consider `CCO/C([O-])=C(\C(=O)c1ccccc1)[n+]1c(C)n(C)c2ccccc21`, for which the GI50 in the test with DLD-1, with DMS-114, with DMS-273, in the test with HOP-18, with KM-20L2 and in the test on M19-MEL was > 100 µM (inactive) throughout. Moreover, the GI50 in the test on SNB-78 is > 100 µM (inactive).
With `C=C(CCCCC)CN1CCCC1[C@@](C)(O)CC(=O)OCC` (some centres not stated), the GI50 in the test with DLD-1, with DMS-114, in the test on DMS-273, in the test with HOP-18, with KM-20L2 and in the test on M19-MEL was > 100 µM (inactive) throughout. Further, the values for the GI50 in the test on SNB-78 and in the test with XF498 were > 100 µM (inactive) and > 76.6 µM (inactive), respectively.
As for `Nc1nc(N)c(-c2ccc(Cl)cc2)c(CCC(=O)Nc2cccc(C(F)(F)F)c2)n1`, the GI50 in the test with DLD-1, with DMS-114, in the test on DMS-273, in the test on HOP-18, in the test on KM-20L2 and with RXF 631 was > 100 µM (inactive) throughout. The GI50 in the test on SNB-78 and in the test with XF498 was > 100 µM (inactive) each time.
`Cc1ccc(C)c(N2C(=O)C(=O)C(c3nc4ccccc4s3)/C(=N\c3cccc4c(=O)[nH][nH]c(=O)c34)C2=O)c1` (configuration not stated): the GI50 with DLD-1, with DMS-114, with DMS-273, in the test with HOP-18, in the test with KM-20L2 and with RXF 631 was > 100 µM (inactive) each time.
As to `O=C(OCCOCCOC(=O)c1c[nH]cc1-c1ccccc1)c1c[nH]cc1-c1ccccc1`, the GI50 was 24.8 µM (inactive) in the test with DLD-1; 13.8 µM (inactive) in the test with DMS-114; 15.9 µM (inactive) with DMS-273; 21.9 µM (inactive) in the test on KM-20L2; 18.7 µM (inactive) in the test with M19-MEL; 19.3 µM (inactive) in the test with SNB-78. Further, the GI50 in the test with XF498 was 19.9 µM (inactive).
Consider `CCOC(=O)NC(=O)c1cn(CCOCCOC(=O)NCCCCCCNC(=O)OCCOCCn2cc(C(=O)NC(=O)OCC)c(=O)[nH]c2=O)c(=O)[nH]c1=O`, for which the GI50 in the test on DLD-1, in the test on DMS-114, in the test with DMS-273, in the test on HOP-18, in the test with KM-20L2 and in the test on M19-MEL was > 100 µM (inactive) in each case. Also, the GI50 in the test on RXF 631 and in the test with SNB-78 was > 100 µM (inactive) throughout.
Consider `CCCCNC(=O)CCN(C(=O)O)S(=O)(=O)c1ccc(NC(=O)c2ccccc2)cc1`, for which the GI50 with DLD-1 was > 100 µM (inactive); in the test with DMS-114, > 100 µM (inactive); with DMS-273, 30.4 µM (inactive); with HOP-18, > 100 µM (inactive); with KM-20L2 it was > 100 µM (inactive); in the test with M19-MEL it was 79.4 µM (inactive). In addition, the GI50 in the test with SNB-78 and with XF498 was > 100 µM (inactive) each time.
Turning to `Cc1nc2c(s/c(=N\N)n2-c2ccccc2)c(=O)n1C`, the GI50 in the test on DMS-114, in the test on DMS-273, in the test on KM-20L2, in the test with M19-MEL, with SNB-78 and in the test with XF498 was > 100 µM (inactive) in each case.
